The values below come from patent publication US6025349A, “Phenyl.-substituted alkenylcarboguanidides carrying perfluoroalkyl groups, a process for their preparation, their use as a medicament or diagnostic agent, and also a medicament containing them” (priority 1994, dated 2000).

Data set [1] deals with T1, Na^+ /H^+ exchanger of rabbit erythrocytes (Oryctolagus cuniculus, UniProt P23791).
T1 construct: from tissue; host or cells: rabbit blood (erythrocytes), White New Zealand rabbits
Kind of data set: Inhibition of the Na^+ /H^+ exchanger of rabbit erythrocytes (amiloride-sensitive sodium influx, flame photometry). Format: cell-based. The following applies: pH 7.4, 37° C., cholesterol-fed White New Zealand rabbits. The source says: Inhibition of the Na^+ /H^+ exchanger of rabbit erythrocytes:
White New Zealand rabbits (Ivanovas) received a standard diet containing 2% cholesterol for six weeks in order to activate Na^+ /H^+ exchange and thus to be able to determine the Na^+ influx into the erythrocytes via Na^+ /H^+ exchange by flame photometry. The blood was taken from the ear arteries and anticoagulated by 25 IU/ml potassium heparin. A portion of each sample was used for duplicate determination of the hematocrit by centrifugation. Aliquots each of 100 μl were used to measure the initial Na^+ content of the erythrocytes.
In order to determine the amiloride-sensitive sodium influx, 100 μl of each blood sample were incubated in each case in 5 ml of a hyperosmolar salt/sucrose medium (mmol/l: 140 NaCl, 3 KCl, 150 sucrose, 0.1 ouabain, 20 tris-hydroxymethylaminomethane) at pH 7.4 and 37° C. The erythrocytes were then washed three times with ice-cold MgCl2 /ouabain solution (mmol/l: 112 MgCl2, 0.1 ouabain) and hemolyzed in 2.0 ml of distilled water. The intracellular sodium content was determined by flame photometry.
The net Na^+ influx was calculated from the difference between the initial sodium levels and the sodium content of the erythrocytes after incubation. The sodium influx which can be inhibited by amiloride was found from the difference in the sodium content of the erythrocytes after incubation with and without amiloride 3×10^-4 mol/l. The compounds according to the invention were also subjected to this process.

In data set [2] the test system is rat hearts. The following applies: isolated rat hearts; Eur. Heart J. 9 (suppl. 1): 167 (1988); cited from earlier work.
Data set [3] has as its system cardiac rhythm disturbances. The following applies: cited from earlier work.

Counter-ions that a name gives are not always drawn.

T1 sequence (P23791 whole entry): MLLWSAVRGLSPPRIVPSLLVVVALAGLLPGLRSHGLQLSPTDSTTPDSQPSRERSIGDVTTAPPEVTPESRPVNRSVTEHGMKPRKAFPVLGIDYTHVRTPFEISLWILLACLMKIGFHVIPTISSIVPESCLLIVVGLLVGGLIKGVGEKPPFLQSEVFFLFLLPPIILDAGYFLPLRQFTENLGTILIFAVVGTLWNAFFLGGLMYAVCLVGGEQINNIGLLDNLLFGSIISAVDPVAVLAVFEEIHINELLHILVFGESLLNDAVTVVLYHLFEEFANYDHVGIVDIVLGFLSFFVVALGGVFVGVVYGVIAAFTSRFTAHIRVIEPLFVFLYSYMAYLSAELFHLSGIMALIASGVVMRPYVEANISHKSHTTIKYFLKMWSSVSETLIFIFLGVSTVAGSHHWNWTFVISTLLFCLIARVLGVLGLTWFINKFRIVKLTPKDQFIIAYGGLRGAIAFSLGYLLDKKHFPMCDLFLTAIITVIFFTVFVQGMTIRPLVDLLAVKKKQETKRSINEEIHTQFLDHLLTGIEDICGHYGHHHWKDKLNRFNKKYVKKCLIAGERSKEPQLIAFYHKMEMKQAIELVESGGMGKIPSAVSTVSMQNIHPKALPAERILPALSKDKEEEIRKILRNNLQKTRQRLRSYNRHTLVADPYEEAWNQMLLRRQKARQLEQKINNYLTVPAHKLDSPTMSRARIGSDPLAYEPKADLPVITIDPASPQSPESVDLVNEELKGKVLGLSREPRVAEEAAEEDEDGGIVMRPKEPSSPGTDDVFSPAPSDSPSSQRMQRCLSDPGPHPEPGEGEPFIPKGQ

As for `NC(N)=NC(=O)C=Cc1cccc(C(F)(F)F)c1` [Example 1, Meta-Trifluoromethylcinnamic Acid Guanidide Hydrochloride], in data set [1], the IC50 (commonly the concentration at which inhibition is half-maximal) was < 1000 nM.

Regarding `C/C(=C\c1cccc(C(F)(F)F)c1)C(=O)N=C(N)N` [Example 3, Trans-2-Methyl-3-(3-Trifluoromethylphenyl)-Acrylic Acid Guanidide], in data set [1], the IC50 was < 1000 nM.

As to `C/C(C(=O)N=C(N)N)=C(/C)c1cc(C(F)(F)F)ccc1F` [Example 10, Trans-2,3-Dimethyl-3-[2-Fluoro-5-Trifluoromethyl-Phenyl]-Acrylic Acid Guanidide], the IC50 in data set [1] was < 1000 nM.

For `N=C(N)NC(=O)c1nc(Cl)c(N)nc1N` [amiloride], the “suppression of artificially induced ventricular fibrillation” value in data set [2] is “completely to suppress artificially induced ventricular fibrillation”. The antiarrhythmic effect result in data set [3] (Circulation 79, 1257-63 (1989)) is reported as “only weak”. Besides, the accompanying side effects result in data set [3] (in vivo) is “blood pressure-lowering and saluretic effect”.

As for `CCN(c1nc(N)c(C(=O)NC(=N)N)nc1Cl)C(C)C` [ethylisopropylamiloride], the “suppression of artificially induced ventricular fibrillation” value in data set [2] is recorded as “Even more potent than amiloride”.
